Laboratory results from patent US6693216B2, “Calcium double salts” (Nutrinova Nutrition Specialties & Food Ingredients GmbH, priority 2000, dated 2004).
Like-named read-outs stand apart in the source and are kept apart here.

Legend:
[1] = sealed
From the text: Salts prepared as in example 1 were dried, stored under the specified conditions without the addition of other substances and checked at regular intervals visually for discoloration: […]

Lactic acid bacteria = conditions: Part I, 1 g/l in apple juice pH 4.5, 25° C.
Clostridia = conditions: Part I, 1 g/l in apple juice pH 4.5, 25° C.
Bacilli = conditions: Part I, 1 g/l in apple juice pH 4.5, 25° C.
Thermophilic bacilli = conditions: Part I, 1 g/l in apple juice pH 4.5, 25° C.
Acetic acid bacteria = conditions: Part I, 1 g/l in apple juice pH 4.5, 25° C.
Yeasts = conditions: Part I, 1 g/l in apple juice pH 4.5, 25° C.
Molds I = conditions: Part I, 1 g/l in apple juice pH 4.5, 25° C.
Gram-negative bacteria = conditions: Part I, 1 g/l in apple juice pH 4.5, 25° C.
Gram-positive bacteria = conditions: Part I, 1 g/l in apple juice pH 4.5, 25° C.

Compound: CCC(=O)[O-].O=C([O-])c1ccccc1.[Ca+2]
- Time after yellow-brown discoloration of a 1% strength aqueous solution ([1]; dark at 7° C.): 12 months
- Time after yellow-brown discoloration of the powder ([1]; dark at 7° C.): 12 months
- Time after yellow-brown discoloration of a 1% strength aqueous solution ([1]; dark at 25° C.): 8 months
- Time after yellow-brown discoloration of the powder ([1]; dark at 25° C.): 7 months
- Time after yellow-brown discoloration of a 1% strength aqueous solution ([1]; under sunlight at 7° C.): 12 months
- Time after yellow-brown discoloration of the powder ([1]; under sunlight at 7° C.): 12 months
- Time after yellow-brown discoloration of a 1% strength aqueous solution ([1]; under sunlight at 25° C.): 7-8 months
- Time after yellow-brown discoloration of the powder ([1]; under sunlight at 25° C.): 8 months

Compound: C/C=C/C=C/C(=O)[O-].[K+] [Potassium Sorbate]
- Number of surviving microorganisms per g of contaminated sample, Lactic acid bacteria (Lactic acid bacteria; 1 day after inoculation (1.9 × 10^4)): 1.3 × 10^4 CFU/g
- Number of surviving microorganisms per g of contaminated sample, Lactic acid bacteria (Lactic acid bacteria; 3 days after inoculation (1.9 × 10^4)): 1.2 × 10^6 CFU/g
- Number of surviving microorganisms per g of contaminated sample, Lactic acid bacteria (Lactic acid bacteria; 7 days after inoculation (1.9 × 10^4)): 1.7 × 10^6 CFU/g
- Number of surviving microorganisms per g of contaminated sample, Lactic acid bacteria (Lactic acid bacteria; 14 days after inoculation (1.9 × 10^4)): 1.2 × 10^7 CFU/g
- Number of surviving microorganisms per g of contaminated sample, Clostridia (Clostridia; 1 day after inoculation (1.4 × 10^4)): 1.1 × 10^3 CFU/g
- Number of surviving microorganisms per g of contaminated sample, Clostridia (Clostridia; 3 days after inoculation (1.4 × 10^4)): 450 CFU/g
- Number of surviving microorganisms per g of contaminated sample, Clostridia (Clostridia; 7 days after inoculation (1.4 × 10^4)): 160 CFU/g
- Number of surviving microorganisms per g of contaminated sample, Clostridia (Clostridia; 14 days after inoculation (1.4 × 10^4)): 250 CFU/g
- Number of surviving microorganisms per g of contaminated sample, Bacilli (Bacilli; 1 day after inoculation (1.5 × 10^4)): 1.4 × 10^3 CFU/g
- Number of surviving microorganisms per g of contaminated sample, Bacilli (Bacilli; 3 days after inoculation (1.5 × 10^4)): (<100) CFU/g
- Number of surviving microorganisms per g of contaminated sample, Bacilli (Bacilli; 7 days after inoculation (1.5 × 10^4)): 1.4 × 10^3 CFU/g
- Number of surviving microorganisms per g of contaminated sample, Bacilli (Bacilli; 14 days after inoculation (1.5 × 10^4)): 1.3 × 10^3 CFU/g
- Number of surviving microorganisms per g of contaminated sample, Thermophilic bacilli (Thermophilic bacilli; 1 day after inoculation (1.3 × 10^4)): 1.6 × 10^3 CFU/g
- Number of surviving microorganisms per g of contaminated sample, Thermophilic bacilli (Thermophilic bacilli; 3 days after inoculation (1.3 × 10^4)): 900 CFU/g
- Number of surviving microorganisms per g of contaminated sample, Thermophilic bacilli (Thermophilic bacilli; 7 days after inoculation (1.3 × 10^4)): <100 CFU/g
- Number of surviving microorganisms per g of contaminated sample, Thermophilic bacilli (Thermophilic bacilli; 14 days after inoculation (1.3 × 10^4)): <10 CFU/g
- Number of surviving microorganisms per g of contaminated sample, Acetic acid bacteria (Acetic acid bacteria; 1 day after inoculation (2.3 × 10^4)): 1.7 × 10^4 CFU/g
- Number of surviving microorganisms per g of contaminated sample, Acetic acid bacteria (Acetic acid bacteria; 3 days after inoculation (2.3 × 10^4)): 4.3 × 10^5 CFU/g
- Number of surviving microorganisms per g of contaminated sample, Acetic acid bacteria (Acetic acid bacteria; 7 days after inoculation (2.3 × 10^4)): 1.3 × 10^3 CFU/g
- Number of surviving microorganisms per g of contaminated sample, Acetic acid bacteria (Acetic acid bacteria; 14 days after inoculation (2.3 × 10^4)): 2.7 × 10^5 CFU/g
- Number of surviving microorganisms per g of contaminated sample, Yeasts (Yeasts; 1 day after inoculation (2.5 × 10^4)): 2.7 × 10^5 CFU/g
- Number of surviving microorganisms per g of contaminated sample, Yeasts (Yeasts; 3 days after inoculation (2.5 × 10^4)): 1.1 × 10^4 CFU/g
- Number of surviving microorganisms per g of contaminated sample, Yeasts (Yeasts; 7 days after inoculation (2.5 × 10^4)): 6.0 × 10^2 CFU/g
- Number of surviving microorganisms per g of contaminated sample, Yeasts (Yeasts; 14 days after inoculation (2.5 × 10^4)): <10 CFU/g
- Number of surviving microorganisms per g of contaminated sample, Molds I (Molds I; 1 day after inoculation (1.7 × 10^4)): 5.0 × 10^4 CFU/g
- Number of surviving microorganisms per g of contaminated sample, Molds I (Molds I; 3 days after inoculation (1.7 × 10^4)): <100 CFU/g
- Number of surviving microorganisms per g of contaminated sample, Molds I (Molds I; 7 days after inoculation (1.7 × 10^4)): <10 CFU/g
- Number of surviving microorganisms per g of contaminated sample, Molds I (Molds I; 14 days after inoculation (1.7 × 10^4)): <10 CFU/g
- Number of surviving microorganisms per g of contaminated sample, Gram-negative bacteria (Gram-negative bacteria; 1 day after inoculation (2.4 × 10^4)): 2.9 × 10^4 CFU/g
- Number of surviving microorganisms per g of contaminated sample, Gram-negative bacteria (Gram-negative bacteria; 3 days after inoculation (2.4 × 10^4)): 1.5 × 10^3 CFU/g
- Number of surviving microorganisms per g of contaminated sample, Gram-negative bacteria (Gram-negative bacteria; 7 days after inoculation (2.4 × 10^4)): 350 CFU/g
- Number of surviving microorganisms per g of contaminated sample, Gram-negative bacteria (Gram-negative bacteria; 14 days after inoculation (2.4 × 10^4)): <10 CFU/g
- Number of surviving microorganisms per g of contaminated sample, Gram-positive bacteria (Gram-positive bacteria; 1 day after inoculation (2.6 × 10^4)): 5.5 × 10^4 CFU/g
- Number of surviving microorganisms per g of contaminated sample, Gram-positive bacteria (Gram-positive bacteria; 3 days after inoculation (2.6 × 10^4)): 7.0 × 10^3 CFU/g
- Number of surviving microorganisms per g of contaminated sample, Gram-positive bacteria (Gram-positive bacteria; 7 days after inoculation (2.6 × 10^4)): <100 CFU/g
- Number of surviving microorganisms per g of contaminated sample, Gram-positive bacteria (Gram-positive bacteria; 14 days after inoculation (2.6 × 10^4)): <10 CFU/g
